This is an account of results in patent publication US6737428B2, “BIS hydrochloride monohydrate salt of RSV fusion inhibitor” (Bristol-Myers Squibb Company, priority 2001, dated 2004).

Read-outs that look alike come from different tables or passages of the source.

The conditions of series [1]: acid used as salt former; cited from earlier work.
In series [2] the test system is respiratory syncytial virus Long strain. Put plainly: Antiviral activity against respiratory syncytial virus in HEp-2 cells (MTT cell protection). Format: cell-based. To be noted: for EC50: human respiratory syncytial virus, read-out: EC50 (concentration that produces 50% cell protection). On the procedure:
The antiviral activity of these compounds against respiratory syncytial virus was determined in HEp-2 (ATCC CCL 23) cells that were seeded in 96 well microtiter plates at 1.5×10^4 cells/100 μL/well in DMEM (Dulbecco's Modified Eagle's Medium) supplemented with penicillin, streptomycin, glutamine, and 10% fetal bovine serum. The cells were incubated overnight at 37° C., the culture medium was removed, and cells were infected (100 μL volume in medium containing 2% fetal bovine serum) with respiratory syncytial virus Long strain at 5000 plaque forming units/mL. The compounds, 100 μL at appropriate dilution, were added to the cells 1 hour post infection. After incubation for 4 days at 37° C., the plates were stained with MTT solution (3-[4,5-dimethlythiazol-2-yl]-2,5-diphenyltetrazolium bromide) and incubated for 4 hours at 37° C. The media was aspirated from the cells and 100 μL/well of acidified isopropanol (per liter: 900 mL isopropanol, 100 mL Triton X100, and 4 mL conc. HCl) was added. Plates were incubated for 15 minutes at room temperature with shaking, and an optical density (OD 540) reading at 540 nanometer (nm) was obtained. The optical density reading is proportional to the number of viable cells. The increase in the number of viable cells reflects the protective, antiviral activity of the compound. Assays comparing MTT staining in uninfected cells containing compound with uninfected cells in the absence of compound provide a measure of cellular toxicity.
The antiviral activity of compounds, designated as EC50, is presented as a concentration that produces 50% cell protection in the assay. […]

In the case of `O=C(O)/C=C\C(=O)O` [maleic acid], in series [1], the “first pKa” value is reported as approximately 2.

As for `O=c1n(Cc2nc3ccccc3n2CCCCO)c2cnccc2n1C1CC1` [compound II], in series [2] (HEp-2, 96 h), the EC50 came to 60 nM.

Regarding `O=C(O)/C=C/C(=O)O` [fumaric acid], the “first pKa” value in series [1] is approximately 3.

In series [2] (at 2.5 μg/mL (corresponding to 10.2 μM)), `NC(=O)c1ncn([C@@H]2O[C@H](CO)[C@@H](O)[C@H]2O)n1` [Ribavirin] had a cell protection of 100%. Further, the EC50 in series [2] (96 h, HEp-2 cells, RSV Long strain, 4 days, MTT) amounted to 3000 nM.
